Laboratory results reported in the supplement of paper PMC10307832.

How the values were obtained:
Assay in all cases: relative viability (nuclei count vs DMSO), 5 days (fraction); higher = more cells survive
Zebularine + Foretinib = compound: O=c1ncccn1[C@@H]1O[C@H](CO)[C@@H](O)[C@H]1O [Zebularine] + COc1cc2c(Oc3ccc(NC(=O)C4(C(=O)Nc5ccc(F)cc5)CC4)cc3F)ccnc2cc1OCCCN1CCOCC1 [Foretinib] (partner 0.25 µM)
Outline: (§1)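 After 5 days of treatment, lung cancer cells in 1536-well plates were fixed and stained in a single step (final 0.05% Triton X-100, 1% formaldehyde, 1 ug/ml Hoechst) and their nuclei counted on 4× images. Treatment had been applied by pin tool the day after seeding as one drug alone or as a fixed anchor-drug dose with five library-drug doses (not always all listed) in √10 steps. Relative viability is the nuclei count of treated wells divided by that of vehicle wells, and values are medians of duplicate plates.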

Zebularine + Pictilisib = compound: O=c1ncccn1[C@@H]1O[C@H](CO)[C@@H](O)[C@H]1O [Zebularine] + CS(=O)(=O)N1CCN(Cc2cc3nc(-c4cccc5[nH]ncc45)nc(N4CCOCC4)c3s2)CC1 [Pictilisib] (partner 1 µM)
Outline: as §1

BI-D1870 + Dasatinib = compound: CC(C)CCN1c2nc(Nc3cc(F)c(O)c(F)c3)ncc2N(C)C(=O)C1C [BI-D1870] + Cc1nc(Nc2ncc(C(=O)Nc3c(C)cccc3Cl)s2)cc(N2CCN(CCO)CC2)n1 [Dasatinib] (partner 0.075 µM)
Outline: as §1

Zebularine + Trametinib = compound: O=c1ncccn1[C@@H]1O[C@H](CO)[C@@H](O)[C@H]1O [Zebularine] + CC(=O)Nc1cccc(-n2c(=O)n(C3CC3)c(=O)c3c(Nc4ccc(I)cc4F)n(C)c(=O)c(C)c32)c1 [Trametinib] (partner 0.02 µM)
Outline: as §1

Row | Cell Line | relative viability (Zebularine + Foretinib; first compound 1 µM) | relative viability (Zebularine + Foretinib; first compound 3.162 µM) | relative viability (Zebularine + Foretinib; first compound 31.62 µM) | relative viability (Zebularine + Foretinib; first compound 100 µM) | relative viability (Zebularine + Pictilisib; first compound 1 µM) | relative viability (Zebularine + Pictilisib; first compound 31.62 µM) | relative viability (Zebularine + Pictilisib; first compound 100 µM) | relative viability (BI-D1870 + Dasatinib; first compound 0.04 µM) | relative viability (BI-D1870 + Dasatinib; first compound 0.1265 µM) | relative viability (BI-D1870 + Dasatinib; first compound 0.4 µM) | relative viability (BI-D1870 + Dasatinib; first compound 1.265 µM) | relative viability (BI-D1870 + Dasatinib; first compound 4 µM) | relative viability (Zebularine + Trametinib; first compound 1 µM) | relative viability (Zebularine + Trametinib; first compound 3.162 µM) | relative viability (Zebularine + Trametinib; first compound 10 µM) | relative viability (Zebularine + Trametinib; first compound 31.62 µM) | relative viability (Zebularine + Trametinib; first compound 100 µM) | relative viability (Zebularine + Foretinib; first compound 10 µM) | relative viability (Zebularine + Pictilisib; first compound 3.162 µM) | relative viability (Zebularine + Pictilisib; first compound 10 µM)
1 | NCI-H1703 | 0.338 | 0.285 | 0.35 | 0.389 | 0.267 | 0.265 | 0.239 |  |  |  |  |  |  |  |  |  |  |  |  | 
2 | LCLC-103H | 0.785 | 0.861 | 0.78 | 0.469 | 0.564 | 0.612 | 0.553 | 0.537 | 0.38 | 0.454 | 0.469 | 0.469 | 0.727 | 0.672 | 0.604 | 0.675 | 0.612 | 0.456 | 0.603 | 0.513
3 | PC-3 [JPC-3] | 1.09 | 1.07 | 0.829 | 0.444 | 0.745 | 0.738 | 0.478 | 1 | 0.892 | 1.01 | 1.12 | 0.947 | 0.779 | 0.696 | 0.622 | 0.71 | 0.539 | 0.67 | 0.612 | 0.538
4 | BEN | 0.648 | 0.44 | 0.336 | 0.194 | 0.56 | 0.385 | 0.3 | 0.291 | 0.293 | 0.349 | 0.38 | 0.304 | 0.996 | 0.994 | 0.781 | 0.491 | 0.49 | 0.341 | 0.504 | 0.291
5 | NCI-H1666 | 0.94 | 0.919 | 0.999 | 0.805 | 0.472 | 0.506 | 0.311 | 0.839 | 0.84 | 0.701 | 0.824 | 0.744 | 0.884 | 0.817 | 0.699 | 0.865 | 0.842 | 0.805 | 0.477 | 0.383
6 | LC-2-ad | 0.868 | 0.828 | 0.674 | 0.454 | 0.509 | 0.258 | 0.158 | 1.05 | 0.576 | 0.473 | 0.578 | 0.43 | 0.957 | 0.979 | 0.657 | 0.777 | 0.356 | 0.717 | 0.421 | 0.399
7 | Calu-6 | 0.959 | 0.84 | 0.798 | 0.275 | 0.995 | 0.859 | 0.218 |  |  |  |  |  |  |  |  |  |  | 0.702 | 0.898 | 0.467
8 | NCI-H1648 |  |  |  |  |  |  |  |  |  |  |  |  | 0.628 | 0.469 | 0.435 | 0.421 | 0.419 |  |  | 
9 | EBC-1 | 0.102 | 0.105 | 0.0884 | 0.109 | 0.338 | 0.387 | 0.303 |  |  |  |  |  |  |  |  |  |  | 0.0888 | 0.348 | 0.311
10 | NCI-H1299 | 1.12 | 1.05 | 1.11 | 0.549 | 0.75 | 0.739 | 0.264 |  |  |  |  |  |  |  |  |  |  | 0.947 | 0.761 | 0.543
11 | NCI-H2342 | 1.33 | 1.07 | 0.953 | 0.748 |  |  |  | 0.333 | 0.313 | 0.315 | 0.329 | 0.406 | 0.891 | 0.768 | 0.751 | 0.756 | 0.712 | 0.802 |  | 
12 | IA-LM | 1.1 | 1.14 | 1.34 | 0.877 | 0.394 | 0.37 | 0.292 |  |  |  |  |  |  |  |  |  |  |  | 0.325 | 
